Assay results reported in ChEMBL document CHEMBL1201862, “PubChem BioAssay data set” (2004).
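48-hour exposure; five concentrations; linearly interpolated endpoints. GI50: concentration for 50% inhibition of growth.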 Activity calls are given as the source filed them. Cut-off read from the data, not from the text of the source: active = GI50 up to about 1.1 µM and inactive = higher.

Key:
Experiment in all cases: NCI anticancer screen, dose series, 48 h
A549 = tested on: A549
ACHN = tested on: ACHN
HCT-116 = tested on: HCT-116
HCT-15 = tested on: HCT-15
Hs-578T = tested on: Hs-578T
K562 = tested on: K562
MDA-MB-231 = tested on: MDA-MB-231
MDA-N = tested on: MDA-N
NCI-H226 = tested on: NCI-H226
NCI/ADR-RES = tested on: NCI/ADR-RES
OVCAR-4 = tested on: OVCAR-4
OVCAR-8 = tested on: OVCAR-8
RXF 393 = tested on: RXF 393
SF-295 = tested on: SF-295
SK-MEL-2 = tested on: SK-MEL-2
SK-OV-3 = tested on: SK-OV-3
SNB-19 = tested on: SNB-19
SR = tested on: SR
UACC-257 = tested on: UACC-257
UACC-62 = tested on: UACC-62

SMILES: CC1C(=O)C(C)C(c2ccccc2)N(N=O)C1c1ccccc1 (stereo not given)
- GI50 (A549): 207 µM (inactive)
- GI50 (ACHN): 143 µM (inactive)
- GI50 (HCT-116): 127 µM (inactive)
- GI50 (HCT-15): > 100 µM
- GI50 (Hs-578T): 46.7 µM (inactive)
- GI50 (K562): > 883 µM (inactive)
- GI50 (MDA-MB-231): 85.3 µM (inactive)
- GI50 (MDA-N): 134 µM (inactive)
- GI50 (NCI-H226): > 69.5 µM (inactive)
- GI50 (NCI/ADR-RES): 179 µM (inactive)
- GI50 (OVCAR-4): > 65.9 µM (inactive)
- GI50 (OVCAR-8): > 91.6 µM (inactive)
- GI50 (RXF 393): 36.9 µM (inactive)
- GI50 (SF-295): 48.8 µM (inactive)
- GI50 (SK-MEL-2): 224 µM (inactive)
- GI50 (SK-OV-3): 37.2 µM (inactive)
- GI50 (SNB-19): 64.4 µM (inactive)
- GI50 (SR): > 439 µM (inactive)
- GI50 (UACC-257): > 548 µM (inactive)
- GI50 (UACC-62): > 475 µM (inactive)

SMILES: CCc1cccc(C(C)C)c1NC1=C([n+]2ccc(C)cc2)C(=O)c2ccccc2C1=O.[O-][Cl+3]([O-])([O-])[O-]
- GI50 (A549): 2.37 µM (inactive)
- GI50 (ACHN): 0.275 µM (active)
- GI50 (HCT-116): 3.21 µM (inactive)
- GI50 (HCT-15): 3.62 µM
- GI50 (Hs-578T): 12.8 µM (inactive)
- GI50 (K562): 1.91 µM (inactive)
- GI50 (MDA-MB-231): 2.21 µM (inactive)
- GI50 (MDA-N): 1.65 µM (inactive)
- GI50 (NCI-H226): 1.39 µM (inactive)
- GI50 (NCI/ADR-RES): 4.92 µM (inactive)
- GI50 (OVCAR-4): 1.73 µM (inactive)
- GI50 (OVCAR-8): 0.962 µM (active)
- GI50 (RXF 393): 0.575 µM (active)
- GI50 (SF-295): 1.87 µM (inactive)
- GI50 (SK-MEL-2): 3.87 µM (inactive)
- GI50 (SK-OV-3): 2.64 µM (inactive)
- GI50 (SNB-19): 1.83 µM (inactive)
- GI50 (SR): 0.0525 µM (active)
- GI50 (UACC-257): 0.993 µM (active)
- GI50 (UACC-62): 0.822 µM (active)

SMILES: C=CC(C)(C)n1cc(C2=C(O)C(=O)C(c3c(CC=C(C)C)[nH]c4ccccc34)=C(O)C2=O)c2ccccc21
- GI50 (A549): 0.624 µM (active)
- GI50 (ACHN): 1.56 µM (inactive)
- GI50 (HCT-116): 1.94 µM (inactive)
- GI50 (HCT-15): 1.62 µM
- GI50 (Hs-578T): 1.43 µM (inactive)
- GI50 (K562): 0.476 µM (active)
- GI50 (MDA-MB-231): 1.81 µM (inactive)
- GI50 (MDA-N): 0.718 µM (active)
- GI50 (NCI-H226): 1.53 µM (inactive)
- GI50 (NCI/ADR-RES): 2.47 µM (inactive)
- GI50 (OVCAR-4): 2.19 µM (inactive)
- GI50 (OVCAR-8): 1.3 µM (inactive)
- GI50 (RXF 393): 1.74 µM (inactive)
- GI50 (SF-295): 1.58 µM (inactive)
- GI50 (SK-MEL-2): 1.59 µM (inactive)
- GI50 (SK-OV-3): 2.14 µM (inactive)
- GI50 (SNB-19): 1.96 µM (inactive)
- GI50 (SR): 0.745 µM (active)
- GI50 (UACC-257): 2.88 µM (inactive)
- GI50 (UACC-62): 0.34 µM (active)

SMILES: COC(=O)NC(Cc1ccccc1)NC(=O)OC(C)(C)C (stereo not given)
- GI50 (A549): > 100 µM (inactive)
- GI50 (ACHN): > 100 µM (inactive)
- GI50 (HCT-116): > 100 µM (inactive)
- GI50 (HCT-15): > 100 µM
- GI50 (Hs-578T): > 100 µM (inactive)
- GI50 (K562): > 100 µM (inactive)
- GI50 (MDA-MB-231): > 100 µM (inactive)
- GI50 (MDA-N): > 100 µM (inactive)
- GI50 (NCI-H226): > 100 µM (inactive)
- GI50 (NCI/ADR-RES): > 100 µM (inactive)
- GI50 (OVCAR-4): > 100 µM (inactive)
- GI50 (OVCAR-8): > 100 µM (inactive)
- GI50 (RXF 393): > 100 µM (inactive)
- GI50 (SF-295): > 100 µM (inactive)
- GI50 (SK-MEL-2): > 100 µM (inactive)
- GI50 (SK-OV-3): > 100 µM (inactive)
- GI50 (SNB-19): > 100 µM (inactive)
- GI50 (SR): > 100 µM (inactive)
- GI50 (UACC-257): > 100 µM (inactive)
- GI50 (UACC-62): > 100 µM (inactive)

SMILES: O=C1N[C@@H](c2c[nH]c3ccc(Br)cc23)C(=O)N[C@H]1c1c[nH]c2ccc(Br)cc12
- GI50 (A549): 13.8 µM (inactive)
- GI50 (ACHN): 3.68 µM (inactive)
- GI50 (HCT-116): 7.93 µM (inactive)
- GI50 (HCT-15): 14.9 µM
- GI50 (Hs-578T): 11 µM (inactive)
- GI50 (K562): 4.47 µM (inactive)
- GI50 (MDA-MB-231): 8.87 µM (inactive)
- GI50 (MDA-N): 8.17 µM (inactive)
- GI50 (NCI-H226): 10.8 µM (inactive)
- GI50 (NCI/ADR-RES): 31.4 µM (inactive)
- GI50 (OVCAR-4): 5.73 µM (inactive)
- GI50 (OVCAR-8): 11.4 µM (inactive)
- GI50 (RXF 393): 15.6 µM (inactive)
- GI50 (SF-295): 11.9 µM (inactive)
- GI50 (SK-MEL-2): 13.6 µM (inactive)
- GI50 (SK-OV-3): 15.9 µM (inactive)
- GI50 (SNB-19): 15.2 µM (inactive)
- GI50 (SR): 4.72 µM (inactive)
- GI50 (UACC-257): 12 µM (inactive)
- GI50 (UACC-62): 7.26 µM (inactive)

SMILES: C=CCNS(=O)(=O)c1ncnc2[nH]cnc12
- GI50 (A549): > 100 µM (inactive)
- GI50 (ACHN): > 100 µM (inactive)
- GI50 (HCT-116): > 100 µM (inactive)
- GI50 (HCT-15): > 100 µM
- GI50 (Hs-578T): > 100 µM (inactive)
- GI50 (K562): 10.5 µM (inactive)
- GI50 (MDA-MB-231): > 100 µM (inactive)
- GI50 (MDA-N): 82.8 µM (inactive)
- GI50 (NCI-H226): > 100 µM (inactive)
- GI50 (NCI/ADR-RES): > 100 µM (inactive)
- GI50 (OVCAR-4): > 100 µM (inactive)
- GI50 (OVCAR-8): > 100 µM (inactive)
- GI50 (RXF 393): 59.7 µM (inactive)
- GI50 (SF-295): > 100 µM (inactive)
- GI50 (SK-MEL-2): > 100 µM (inactive)
- GI50 (SK-OV-3): > 100 µM (inactive)
- GI50 (SNB-19): > 100 µM (inactive)
- GI50 (SR): 69.8 µM (inactive)
- GI50 (UACC-257): > 100 µM (inactive)
- GI50 (UACC-62): > 100 µM (inactive)

SMILES: Cc1cc(C)c2c(=O)n(CN3CCC(C#N)(c4ccccc4)CC3)sc2n1
- GI50 (A549): 97.9 µM (inactive)
- GI50 (ACHN): 21.7 µM (inactive)
- GI50 (HCT-116): > 100 µM (inactive)
- GI50 (HCT-15): 39.1 µM
- GI50 (Hs-578T): 47.8 µM (inactive)
- GI50 (K562): 54 µM (inactive)
- GI50 (MDA-MB-231): > 100 µM (inactive)
- GI50 (MDA-N): 29.6 µM (inactive)
- GI50 (NCI-H226): > 100 µM (inactive)
- GI50 (NCI/ADR-RES): 51.1 µM (inactive)
- GI50 (OVCAR-4): 30.3 µM (inactive)
- GI50 (OVCAR-8): 28.6 µM (inactive)
- GI50 (RXF 393): 26.3 µM (inactive)
- GI50 (SF-295): > 100 µM (inactive)
- GI50 (SK-MEL-2): > 100 µM (inactive)
- GI50 (SK-OV-3): > 100 µM (inactive)
- GI50 (SNB-19): > 100 µM (inactive)
- GI50 (SR): 49.9 µM (inactive)
- GI50 (UACC-257): 22.2 µM (inactive)
- GI50 (UACC-62): > 100 µM (inactive)

SMILES: CC1(C)CCC[C@@]2(C)C1C(=O)[C@@H]1O[C@]1(C)[C@@H]2CO (stereo not given in full)
- GI50 (A549): 19.6 µM (inactive)
- GI50 (ACHN): 40.3 µM (inactive)
- GI50 (HCT-116): 19.7 µM (inactive)
- GI50 (HCT-15): 38 µM
- GI50 (Hs-578T): 34.3 µM (inactive)
- GI50 (K562): 27.3 µM (inactive)
- GI50 (MDA-MB-231): 49 µM (inactive)
- GI50 (MDA-N): 23.5 µM (inactive)
- GI50 (NCI-H226): 33.3 µM (inactive)
- GI50 (NCI/ADR-RES): 48.8 µM (inactive)
- GI50 (OVCAR-4): 24.4 µM (inactive)
- GI50 (OVCAR-8): 27.3 µM (inactive)
- GI50 (RXF 393): 25.6 µM (inactive)
- GI50 (SF-295): 18.2 µM (inactive)
- GI50 (SK-MEL-2): 28.1 µM (inactive)
- GI50 (SK-OV-3): 39.6 µM (inactive)
- GI50 (SNB-19): 24.4 µM (inactive)
- GI50 (SR): 0.587 µM (active)
- GI50 (UACC-257): 43.8 µM (inactive)
- GI50 (UACC-62): 37.2 µM (inactive)

SMILES: CC(=O)ON(C(C)=O)c1ccc(-c2nc3ccccc3s2)cc1
- GI50 (A549): 26.3 µM (inactive)
- GI50 (ACHN): 19.4 µM (inactive)
- GI50 (HCT-116): 24.5 µM (inactive)
- GI50 (HCT-15): 24.4 µM
- GI50 (Hs-578T): 21.2 µM (inactive)
- GI50 (K562): 41 µM (inactive)
- GI50 (MDA-MB-231): 25 µM (inactive)
- GI50 (MDA-N): 27.2 µM (inactive)
- GI50 (NCI-H226): 0.276 µM (active)
- GI50 (NCI/ADR-RES): 16.3 µM (inactive)
- GI50 (OVCAR-4): 38.7 µM (inactive)
- GI50 (OVCAR-8): 21.2 µM (inactive)
- GI50 (RXF 393): 35.3 µM (inactive)
- GI50 (SF-295): 30.1 µM (inactive)
- GI50 (SK-MEL-2): 24.8 µM (inactive)
- GI50 (SK-OV-3): 31.3 µM (inactive)
- GI50 (SNB-19): 34.7 µM (inactive)
- GI50 (SR): 25.6 µM (inactive)
- GI50 (UACC-257): 37 µM (inactive)
- GI50 (UACC-62): 20.9 µM (inactive)
